One assay deals with PAF-induced hyperalgesia. The experiment in a line: Platelet Activating Factor-Induced Hyperalgesia in the Rat. Type of assay: in vivo, rat (female Sprague-Dawley). Particulars: for % Analgesia (percentage of animals with vocalization threshold greater than 200 of vehicle-treated controls): Table 1, 30 min before PAF, readings 3 hours after PAF; for effect in the PAF-induced hyperalgesia assay (in words): pain response to PAF, rat. The procedure:
In this assay, which is sensitive to inhibition by lipoxygenase inhibitors, but not cyclooxygenase inhibitors, compounds of formula (I) reduced the pain response to PAF (Table 1).
Groups of 10 female Sprague-Dawley rats, 35-50 g (Taconic Farms), were fasted overnight prior to testing. Hyperalgesia was induced in the rat by the subplantar injection of 1 ug PAF in physiological saline. Pain threshold was measured by applying pressure to the plantar surface of the hindpaw by means of a compressed air driven piston with a 2 mm tip. Vocalization thresholds were obtained 3 hr after injection of the PAF. Compounds, prepared at various doses in 1% methylcellulose suspension, were administered perorally 30 min before PAF. For each drug treatment group, animals with response pressures in the inflamed paw of 200% of control was considered to be analgesic. The mean vocalization threshold for each group was also calculated.

The target of assay [1] is T1, RBL-1 cell 5-lipoxygenase (Rattus norvegicus, UniProt P12527).
T1 construct: measured in vitro against the RBL-1 cell 5-lipoxygenase; endogenous in cells; host or cells: RBL-1 cells
T1 sequence (P12527 1-673): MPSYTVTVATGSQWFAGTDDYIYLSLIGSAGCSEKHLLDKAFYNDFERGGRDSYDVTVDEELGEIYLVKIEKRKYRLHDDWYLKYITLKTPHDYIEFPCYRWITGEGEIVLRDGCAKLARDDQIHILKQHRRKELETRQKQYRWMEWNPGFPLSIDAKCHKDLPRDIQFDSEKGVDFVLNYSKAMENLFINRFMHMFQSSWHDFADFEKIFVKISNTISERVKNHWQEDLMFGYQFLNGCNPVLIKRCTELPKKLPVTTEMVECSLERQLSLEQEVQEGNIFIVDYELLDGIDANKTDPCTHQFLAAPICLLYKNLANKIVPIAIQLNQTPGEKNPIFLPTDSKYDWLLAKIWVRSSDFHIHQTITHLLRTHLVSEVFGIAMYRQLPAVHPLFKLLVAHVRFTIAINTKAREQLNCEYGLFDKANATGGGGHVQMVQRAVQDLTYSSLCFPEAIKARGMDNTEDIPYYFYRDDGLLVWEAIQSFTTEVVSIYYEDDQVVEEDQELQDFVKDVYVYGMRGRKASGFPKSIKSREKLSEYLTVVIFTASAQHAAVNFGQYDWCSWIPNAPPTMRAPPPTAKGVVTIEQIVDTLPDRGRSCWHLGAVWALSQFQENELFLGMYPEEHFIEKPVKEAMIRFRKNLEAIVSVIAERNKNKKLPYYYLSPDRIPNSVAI
The experiment in a line: Inhibition of RBL-1 Cell 5-Lipoxygenase (5-HETE formation). It is filed as biochemical. The conditions noted are these: read-out: Percent Inhibition. As for the experimental part:
The ability of the compound of Formula I, e.g., Compound A, to inhibit leukotriene biosynthesis was also measured in vitro against the RBL-1 cell 5-lipoxygenase. The protocol for measuring inhibition of 5-HETE formation has been published in R. W. Egan et al., "Advances in Prostaglandin, Thromboxane, and leukotriene Research", Vol. 11 (edited by B. Samuelsson et al., Raven Press, N.Y., 1983), p. 151.

In assay [2] the test system is microsomal ram vesicular gland cyclooxygenase. Briefly: Inhibition of microsomal ram vesicular gland cyclooxygenase. It is filed as biochemical. An excerpt: The protocol for measuring inhibition of this prostaglandin-producing enzyme has been published.
[3] abbreviates: Rattus norvegicus, Platelet, po, 3 h, Table 2, 30 mg/kg p.o., read-out: % Rats Exhibiting Analgesia.
The mark [4] stands for this setting: Rattus norvegicus, po, 3 h, read-out: % Rats Exhibiting Analgesia.

For orientation: inhibition means the relative decrease from the control value, in per cent.

Read-outs that look alike come from different tables or passages of the source.

With `CC1=C(CC(=O)O)c2cc(F)ccc2/C1=C\c1ccc([S+](C)[O-])cc1` (centres unmarked) [Sulindac], the responders at 30 mg/kg in the assay on PAF-induced hyperalgesia (setting [3]) worked out at 10%.

As for `CC(=O)Oc1ccccc1C(=O)O` [Aspirin], the responders at 100 mg/kg with PAF-induced hyperalgesia (setting [4]) amounted to 10%.

For `CSc1ccc2sc(C(=O)Nc3cccc(Cl)c3)c(O)c2c1` [Compound A, --N--(3chlorophenyl)-3-hydroxy-5-(methylthio)benzo[b]thiophene2-carbxamide], in assay [1] (0.5 ug/ml), the inhibition at 0.5 µg/mL was 48%. In assay [1] (1 ug/ml), the inhibition at 1 µg/mL was determined as 58%. Besides, the inhibition at 2 µg/mL in assay [1] (2 ug/ml) stood at 74%. Moreover, the inhibition at 10 µg/mL in assay [1] (10 ug/ml) came out at 83%. In assay [2], the “Percent Inhibition” value came out at 95%. In addition, in the assay on PAF-induced hyperalgesia (setting [3]), the responders at 30 mg/kg stood at 90%. Also, in the assay on PAF-induced hyperalgesia (30 mg/kg p.o.), the “% Analgesia (percentage of animals with vocalization threshold greater than 200 of vehicle-treated controls)” value is 90%.

For `CC(C)Cc1ccc(C(C)C(=O)O)cc1` (centres unmarked) [Ibuprofen], the responders at 30 mg/kg with PAF-induced hyperalgesia (setting [3]) is 10%. Besides, the “effect in the PAF-induced hyperalgesia assay (in words)” value (“effect” below) in the assay with PAF-induced hyperalgesia is given as “completely ineffective”.

As to `CN1C(C(=O)Nc2ccccn2)=C(O)c2ccccc2S1(=O)=O` [Piroxicam], the responders at 30 mg/kg in the assay with PAF-induced hyperalgesia (setting [3]) came out at 0%. Further, in the assay with PAF-induced hyperalgesia, the “effect” value is reported as “completely ineffective”.

With `CSc1ccc2sc(C(=O)NCc3ccccc3)c(O)c2c1` [Compound B, 3Hydroxy-5-(methylthio)---N--(phenylmethyl)benzo[b]thiophene2-carboxmide], in the assay on PAF-induced hyperalgesia (30 mg/kg p.o.), the “% Analgesia (percentage of animals with vocalization threshold greater than 200 of vehicle-treated controls)” value was determined as 80%.

For `COc1ccc2cc([C@H](C)C(=O)O)ccc2c1` [Naproxen], the responders at 30 mg/kg with PAF-induced hyperalgesia (setting [4]) worked out at 10%.

On to `CC(C(=O)O)c1ccc2oc(-c3ccc(Cl)cc3)nc2c1` (centres unmarked) [Benoxaprofen], for which, in the assay with PAF-induced hyperalgesia (setting [3]), the responders at 30 mg/kg is 10%. Besides, in the assay on PAF-induced hyperalgesia, the “effect” value is on record as “completely ineffective”.

On to `COc1ccc2c(c1)c(CC(=O)O)c(C)n2C(=O)c1ccc(Cl)cc1` [Indomethacin], for which the responders at 10 mg/kg with PAF-induced hyperalgesia (setting [4]) came out at 10%. Also, the “effect” value in the assay on PAF-induced hyperalgesia is listed as “completely ineffective”.

Consider `O=C(O)c1cc(-c2ccc(F)cc2F)ccc1O` [Diflunisal], for which the responders at 30 mg/kg in the assay on PAF-induced hyperalgesia (setting [3]) was 10%.

The values are drawn from patent US4800211A, “5-methylthio-3-hydroxybenzo [b]thiophene-2-carboxamide derivatives as cyclooxygenase and lipoxygenase inhibitors” (Merck & Co., Inc., priority 1986, dated 1989).
